Patent publication US12662494B2, “Optically active bridged piperidine derivative” (Sumitomo Pharma Co., Ltd., priority 2018, dated 2026)
Read-outs that look alike come from different tables or passages of the source.

How the values were obtained:
[1] = target: T1, Menin-MLL binding (His-Menin1-615 and MLL1-172-FLAG) (Homo sapiens, UniProt O00255); assay: Test 1: inhibition of the menin-MLL binding (HTRF); settings: for IC50: His-Menin1-615 30 nmol/L, MLL1-172-FLAG 50 nmol/L; for menin-MLL binding inhibition activity (in words): summary of Test 1 table
T1 construct: Menin1-615 wherein 6× His tag and HA tag are inserted in the N-terminus; HA (N); myc (C)
T1 sequence (O00255 1-615 isoform O00255-1): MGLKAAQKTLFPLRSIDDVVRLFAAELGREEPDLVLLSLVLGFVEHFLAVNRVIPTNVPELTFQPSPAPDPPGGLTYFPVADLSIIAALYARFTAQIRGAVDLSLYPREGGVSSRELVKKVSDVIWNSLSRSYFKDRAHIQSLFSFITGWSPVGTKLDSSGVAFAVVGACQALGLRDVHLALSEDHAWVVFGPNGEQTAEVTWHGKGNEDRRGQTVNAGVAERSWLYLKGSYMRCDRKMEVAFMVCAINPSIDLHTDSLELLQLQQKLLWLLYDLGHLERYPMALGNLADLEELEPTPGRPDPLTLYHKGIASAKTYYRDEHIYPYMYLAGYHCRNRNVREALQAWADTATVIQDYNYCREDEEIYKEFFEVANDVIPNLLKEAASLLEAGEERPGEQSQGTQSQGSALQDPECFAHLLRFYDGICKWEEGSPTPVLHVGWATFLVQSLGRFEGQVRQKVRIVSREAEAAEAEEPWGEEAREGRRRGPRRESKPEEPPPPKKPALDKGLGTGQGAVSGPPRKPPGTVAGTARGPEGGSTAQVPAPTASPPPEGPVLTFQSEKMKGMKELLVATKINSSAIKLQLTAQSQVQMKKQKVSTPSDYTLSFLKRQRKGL
Description: Test 1: Test for Evaluating the Inhibition of the Menin-MLL Binding
Menin1-615 wherein 6× His tag and HA tag are inserted in the N-terminus, and myc tag is inserted in the C-terminus (hereinafter, referred to as His-Menin1-615), was diluted with an assay buffer (25 mmol/L HEPES, 150 mmol/L NaCl, 1 mmol/L dithiothreitol, 0.5% (w/v) Tween 80, 0.3% (w/v) BSA, 0.3% (w/v) skim milk) to adjust the final concentration to 30 nmol/L. The test compounds were also diluted with the assay buffer to adjust each concentration of the test compounds to 0.005 to 5 μmol/L. The prepared His-Menin1-615 and test compounds were added to a light-shielding 384-well low-volume plate (Corning, #4514) in 2 μL/well and […], respectively, and the plate was covered with a lid for light-shielding (Corning, #3935), and incubated at room temperature for 3 hours. After the incubation, MLL1-172 wherein FLAG tag is inserted in the C-terminus (MLL1-172-FLAG), was separately diluted with the assay buffer to adjust the final concentration to 50 nmol/L. The prepared MLL1-172-FLAG was added to the above plate in 2 μL/well, and the plate was covered with a lid for light-shielding and incubated at room temperature for an hour.
Then, anti-6HIS-d2 antibody (cisbio, 61HISDLA) and anti-FLAGM2-K antibody (cisbio, 61FG2KLA) were diluted with an antibody dilution buffer (50 mmol/L Tris, 150 mmol/L NaCl, 800 mmol/L KF, pH 7.4) to adjust the final concentration to 1.4 μg/mL to prepare an antibody mixture. The prepared antibody mixture was added to the above plate in 10 μL/well, and the plate was covered with a lid and incubated at 4° C. for 17 to 24 hours. After the incubation, the signal was detected with RUBYstar (BMG LABTECH).

RS4; 11 cells = assay: Test 2: inhibition of cell proliferation, RS4;11; format: cell-based; settings: for IC50: Homo sapiens, 168 h, RS4;11 cells, 7 days, PrestoBlue cell viability; for cell proliferation inhibition activity, good (in words) / cell proliferation inhibitory activity, potent (in words): summary of Test 2 table, RS4;11 and MOLM-13
Description: (§1) Test 2: Test for Evaluating the Inhibition of Cell Proliferation
(§2) RS4; 11 cells were obtained from American Type Culture Collection (ATCC). The cells were cultured at 37° C. in the presence of 5% CO2 in RPMI 1640 medium containing 10% fetal bovine serum and 1% penicillin/streptomycin. MOLM-13 cells were separately obtained from DSMZ (Deutsche Sammlung von Mikroorganismen und Zellkulturen GmbH). The cells were cultured at 37° C. in the presence of 5% CO2 in RPMI 1640 medium containing […] and 1% penicillin/streptomycin.
(§3) The cells were plated to a 96-well plate in 2000 cells/well, each test compound was added thereto to adjust the final concentration of DMSO to 0.1% of DMSO, and the cells were cultured for 7 days. After the cultivation, the cell viability was calculated with PrestoBlue™ Cell Viability Reagent (Invitrogen, A13261). The IC50 value was calculated from a survival curve, that corresponds to the concentration of the test compound at which the cell proliferation inhibition rate is 50%.

MOLM-13 cells = assay: Test 2: inhibition of cell proliferation, MOLM-13; format: cell-based; settings: Homo sapiens, 168 h, 7 days, PrestoBlue cell viability
Description: as §1, §2, §3

MEIS1 = assay: Test 3: inhibition of mRNA transcription, MEIS1 in MV4;11 cells; format: cell-based; settings: for mRNA at 1 μM (% control) MEIS1: MV4;11 cells, 20 to 24 hours, fitted with GAPDH; for mRNA transcription inhibition activity (in words): summary of Test 3 table, MEIS1 and HOXA9, MV4;11 cells, 1 μM
Description: (§4) Test 3: Test for the Inhibition of mRNA Transcription with Test Compounds
(§5) MV4; 11 cells were obtained from American Type Culture Collection (ATCC). The cells were cultured at 37° C. in the presence of 5% CO2 in RPMI 1640 medium containing 10% fetal bovine serum and 1% penicillin/streptomycin. To the MV4; 11 cells was added each test compound to adjust the final concentration to 1 μmol/L, and the cells were cultured at 37° C. in the presence of 5% CO2 for 20 to 24 hours. After the incubation, the total RNA was extracted from the cells with RNeasy™ Mini Kit (QIAGEN, 74106), and CDNA was synthesized with Superscript™ VILO™ CDNA Synthesis Kit (Invitrogen, #11754250). By using TaqMan™ Gene Expression Master Mix (Applied Biosystems, 4369016) and TaqMan™ probe (Applied Biosystems), the expression level of mRNA was quantified from the obtained cDNA with 7900HT (Applied Biosystems). The mRNA expression level of each obtained gene was fitted with the expression level of mRNA of GAPDH.

HOXA9 = assay: Test 3: inhibition of mRNA transcription, HOXA9 in MV4;11 cells; format: cell-based; settings: 20 to 24 hours, fitted with GAPDH
Description: as §4, §5

[2] = Test 4: pharmacokinetic study, oral, mouse; settings: for AUC(0-t): male, NOD.CB17-Prkdcscid/J, plasma, po, 100 mg/kg; for compound-exposure in plasma (in words): summary of Test 4 table, oral 100 mg/kg
Description: Test 4: Pharmacokinetic Study
(§6) The test compound suspended in 0.5% methylcellulose was orally administered to 7-week-old male NOD. CB17-Prkdcscid/J mouse in a dose of 100 mg/kg. The blood sample was taken from jugular vein without anesthesia over time for 24 hours. The blood sample was centrifuged to obtain plasma. The plasma was pre-treated by methanol extraction method, and then analyzed with an LC-MS/MS to determine the concentration of the test compound. Based on the data from 0 hour after the administration until the time (t) when there was the final detection in the plasma, AUC was calculated by trapezoidal method.

[3] = mouse, in vivo, po, 100 mg/kg
Description: Test 4: Pharmacokinetic Study
as §6

Row | Compound | IC50 [1] [nM] | menin-MLL binding inhibition activity (in words) [1] | IC50 (RS4; 11 cells) [nM] | cell proliferation inhibition activity, good (in words) (RS4; 11 cells) | cell proliferation inhibitory activity, potent (in words) (RS4; 11 cells) | IC50 (MOLM-13 cells) [nM] | mRNA at 1 μM (% control) MEIS1 (MEIS1) [% control] | mRNA transcription inhibition activity (in words) (MEIS1) | mRNA at 1 μM (% control) HOXA9 (HOXA9) [% control] | AUC(0-t) [2] [ng·h/mL] | compound-exposure in plasma (in words) [2] | AUC(0-t) [3] [ng·h/mL] | compound-exposure in plasma (in words) [3]
1 | O=C([C@H]1N[C@H]2CC[C@@H]1[C@H](F)[C@@H]2CC1CC1)N1CC2(C1)CN(c1c(C(F)(F)F)cnc3sc(CC(F)(F)F)cc13)C2 [Example 11, [(1S,3S,4S,5R,6R)-6-(cyclopropylmethyl)-5-fluoro-2-azabicyclo[2.2.2]octan-3-yl]{6-[2-(2,2,2-trifluoroethyl)-5-(trifluoromethyl)thieno[2,3-b]pyridin-4-yl]-2,6-diazaspiro[3.3]heptan-2-yl}methanone] | 18.8 | potent menin-MLL binding inhibition activity | 80 | good cell proliferation inhibition activity | potent cell proliferation inhibitory activity | 150 | 20.6 | mRNA transcription inhibition activity | 45.0 | 6740 | good compound-exposure in plasma |  | 
2 | [2H]C([2H])=C1C[C@@H]2CC[C@H]1[C@@H](C(=O)N1CCC3(CC1)CN(c1c(C#N)cnc4sc(CC(F)(F)F)cc14)C3)N2 [Example 24, 4-{7-[(1S,3S,4R)-5-(^2H2)methylidene-2-azabicyclo[2.2.2]octane-3-carbonyl]-2,7-diazaspiro[3.5]nonan-2-yl}-2-(2,2,2-trifluoroethyl)thieno[2,3-b]pyridine-5-carbonitrile] |  |  |  | good cell proliferation inhibition activity | potent cell proliferation inhibitory activity |  |  |  |  |  |  | 6970 | good compound-exposure in plasma
3 | O=C([C@H]1N[C@H]2CC[C@@H]1C[C@@H]2CC1CC1)N1CC2(C1)CN(c1c(C(F)(F)F)cnc3sc(CC(F)(F)F)cc13)C2 [Example 1, [(1S,3S,4R,6S)-6-(Cyclopropylmethyl)-2-azabicyclo[2.2.2]octan-3-yl]{6-[2-(2,2,2-trifluoroethyl)-5-(trifluoromethyl)thieno[2,3-b]pyridin-4-yl]-2,6-diazaspiro[3.3]heptan-2-yl}methanone] | 36.5 | potent menin-MLL binding inhibition activity | 90 | good cell proliferation inhibition activity | potent cell proliferation inhibitory activity | 280 | 31.8 | mRNA transcription inhibition activity | 55.0 | 10300 | good compound-exposure in plasma |  | 
4 | [2H]C([2H])=C1C[C@@H]2CC[C@H]1[C@@H](C(=O)N1CCC3(CC1)CN(c1c(C(F)(F)F)cnc4sc(CC(F)(F)F)cc14)C3)N2 [Example 21, [(1S,3S,4R)-5-(^2H2)methylidene-2-azabicyclo[2.2.2]octan-3-yl]{2-[2-(2,2,2-trifluoroethyl)-5-(trifluoromethyl)thieno[2,3-b]pyridin-4-yl]-2,7-diazaspiro[3.5]nonan-7-yl}methanone] |  |  |  | good cell proliferation inhibition activity | potent cell proliferation inhibitory activity |  |  |  |  |  |  | 24300 | good compound-exposure in plasma
